Results on five compounds are retold here after US11891655B2, “Probe for selectively characterizing enzymes involved in xenobiotic metabolism and method of making and using the same” (Battelle Memorial Institute, priority 2017, dated 2024).

Assay [1] concerns GSTs in mouse liver cytosol.
The subject of assay [2] is GSTs (H site) in mouse liver cytosol. The following applies: read-out: EC50 of inhibition of GST-ABP-H probe labeling, 10 μM probe.
In assay [3] the test system is GST isoenzymes in lung lysate. The assay is described as follows: LC-MS proteomics of probe-enriched mouse lung lysate. The format is binding.
Assay [4] deals with cytosolic fraction of mouse liver lysate. Format: binding. As to conditions: increasing probe concentrations; SDS-PAGE. The method, then: FIG. 15B show results from labeling glutathione transferase (GSH and GST) with probe embodiments described herein using 1 μM mouse liver cytosol.
(§1) Concentration dependent labeling of a recombinant GST (FIG. 15A) was evaluated. The two probe embodiments, GSH-ABP-G and GST-ABP-H, were applied with increasing concentrations to the recombinant human GSTM1, a GST isoenzyme that is highly expressed in mammalian liver. […] Both probes were then applied with increasing concentrations to the cytosolic fraction of mouse liver lysate to further test probe targeting (FIG. 15B). Both probes strongly label two distinct bands at 24 kDa. The lower band is likely GSTP1, a 23.6 kDa protein highly abundant in the liver. […] To determine the specific GST isoforms targeted by each probe, LC-MS based proteomics analyses of mouse liver labeling, and labeling in the presence of specific inhibitors were performed (FIGS. 16A and 16B). […] 27 probe-targeted proteins were determined to be statistically significant targets of the GSH-ABP-G probe embodiment at a fold-change of 3 over no UV exposure controls. Of these 27 proteins, 8 are known GSTs and include members of mu, alpha, pi, theta, kappa, and zeta classes. The remaining proteins include five proteins with known GSH binding, one with known antioxidant and drug binding activity, and five proteins highly abundant in liver with no known GSH binding activity. […]

For another assay, the target named is T1, recombinant human GSTM1 (Homo sapiens, UniProt P09488).
T1 sequence (P09488 1-218): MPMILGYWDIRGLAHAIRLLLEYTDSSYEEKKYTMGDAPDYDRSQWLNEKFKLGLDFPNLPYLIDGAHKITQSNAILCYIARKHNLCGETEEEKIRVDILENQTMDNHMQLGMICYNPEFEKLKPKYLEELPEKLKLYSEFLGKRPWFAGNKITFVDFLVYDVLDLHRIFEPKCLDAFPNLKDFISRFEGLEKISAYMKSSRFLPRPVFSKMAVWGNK
Kind of assay: Concentration-dependent probe labeling of recombinant GST (SDS-PAGE). The format is binding. The following applies: increasing probe concentrations, 30 minutes incubation, rhodamine click. Here is the method:
FIG. 15A show results from labeling glutathione transferase (GSH and GST) with probe embodiments described herein using 1 μM recombinant human GSTm1.
as §1

Assay [5] deals with glucuronidase activity in the gut microbiome. Format: in vivo, mouse. The following applies: vancomycin in drinking water 0.1 mg/mL; 4 of 5 sets of litter mates. Here is the method: For the glucuronidase studies, female C57BL/6J mice age 6-8 weeks were purchased from Jackson Laboratories and housed with a 12 hour light/12 hour dark light cycle. Food (PMI 5002) and water were provided ad libitum. Mice were acclimated for 7 days prior to the onset of any treatment. During this time, littermates were co-housed. After this time, mice were placed in separate cages for antibiotic treatment. One set of littermates (n=5) were exposed to vancomycin in drinking water (0.1 mg/mL). The other set were given normal water. To monitor for adverse reactions to the antibiotics, researchers could not be blinded to treatment group during exposure, and were not blinded during subsequent analysis.
Microbial cells from the mouse gut were suspended in PBS with protease inhibitor (cOmplete EDTA-free Protease Inhibitor, Roche) and lysed via bead beating (Bullet Blender). 4-methylumbelliferyl-s-D-glucuronide (4-MUG; 1 mM) was added to 50 μL lysate (0.9 μg total protein) to achieve a final concentration of 500 μM. […] Fluorescence was measured using a plate reader (Molecular Biosciences), and amount of hydrolyzed substrate was calculated relative to a standard curve. Rate (mM/s) was determined via linear regression (GraphPad Prism) and activity was calculated as rate per μg protein. […]

A further assay has as its system gut microbiota. The format is in vivo, mouse. As to conditions: vancomycin in drinking water 0.1 mg/mL.
[6] abbreviates: 10 μM probe, mouse liver cytosol.

For `CCN1C(=O)C=CC1=O` [N-ethylmaleimide, reference compound], the “competition of GST-ABP-H labeling (proteomic analysis)” value in assay [1] (competitor 100 μM, mouse liver cytosol) is “failed to compete for binding of most GST isoenzymes”.

A word on the EC50: it is the concentration giving half of the maximal effect. With `CCCCCCSC[C@H](NC(=O)CC[C@H](N)C(=O)O)C(=O)NCC(=O)O` [S-hexylglutathione, reference compound], the EC50 in assay [2] came out at 41.5 µM. Also, the “fold change inhibition of GST-ABP-H and GSH-ABP-G labeling of GSTA3, M1, and P1” value in assay [1] (S-hexylglutathione competed liver cytosol, p≤0.05) was above 3.0.

On to `C#CCCCC(=O)Nc1cccc2c1C(=O)C(Cl)=C(Cl)C2=O` [GST-ABP-H, N-(6,7-dichloro-5,8-dioxo-5,8-dihydronaphthalen-1-yl)hex-5-ynamide], for which the “number of GST isoenzymes enriched by probe in lung lysate” value in assay [3] is 11. In assay [4], the “selectivity of labeling in mouse liver cytosol” value is given as “more susceptible to off-target labeling”. At recombinant human GSTM1, the “labeling of recombinant human GSTM1” value is recorded as “concentration-dependent targeting”. In addition, the “number of GSTs enriched by probe in mouse liver” value in assay [1] (setting [6]) was 12.

Turning to `C#CCNC(=O)C(Cc1ccc(C(=O)c2ccccc2)cc1)NC(=O)CSCC(NC(=O)CC[C@H](N)C(=O)O)C(=O)NCC(=O)O` (some centres unmarked) [GSH-ABP-G, N5-(3-((2-((3-(4-benzoylphenyl)-1-oxo-1-(prop-2-yn-1-ylamino)propan-2-yl)amino)-2-oxoethyl)thio)-1-((carboxymethyl)amino)-1-oxopropan-2-yl)glutamine], the “number of GST isoenzymes enriched by probe in lung lysate” value in assay [3] is 3. Moreover, the “selectivity of labeling in mouse liver cytosol” value in assay [4] is recorded as “high selectivity”. In addition, at recombinant human GSTM1, the “labeling of recombinant human GSTM1” value is recorded as “concentration-dependent targeting”. In addition, the “number of GSTs enriched by probe in mouse liver” value in assay [1] (setting [6]) is 8. Also, the “number of statistically significant probe-targeted proteins” value in assay [1] (fold-change of 3 over no UV exposure controls, 10 μM probe) is given as 27.

With `CN[C@H](CC(C)C)C(=O)N[C@H]1C(=O)N[C@@H](CC(N)=O)C(=O)N[C@H]2C(=O)N[C@H]3C(=O)N[C@H](C(=O)N[C@H](C(=O)O)c4cc(O)cc(O)c4-c4cc3ccc4O)[C@H](O)c3ccc(c(Cl)c3)Oc3cc2cc(c3O[C@@H]2O[C@H](CO)[C@@H](O)[C@H](O)[C@H]2O[C@H]2C[C@](C)(N)[C@H](O)[C@H](C)O2)Oc2ccc(cc2Cl)[C@H]1O` [Vancomycin], the “glucuronidase activity in gut microbiome after treatment” value in assay [5] is on record as “reduced, but did not eliminate”. Besides, the “relative abundance of Firmicutes in gut microbiota” value in the assay with gut microbiota was “dramatically decreased”.
